Source: patent US20240050428A1 (Cullgen (Shanghai), Inc., priority 2020, published 2024)
Where two headings read alike, the source gives them in different places.

How the values were obtained:
MOLM-13 cells = assay: Cell viability assay (CellTiter-Glo) in MOLM-13 cells, alone or with gilteritinib; assay type: cell-based; conditions: Homo sapiens, MOLM-13, 72 h, MOLM-13 cells, three days, CellTiter-Glo
MV4;11 cells = assay: Cell viability assay (CellTiter-Glo) in MV4;11 cells, alone or with gilteritinib; assay type: cell-based; conditions: Homo sapiens, MV4-11, 72 h, MV4;11 cells, three days, CellTiter-Glo, read-out: MV4
[1] = compound alone (without gilteritinib), read-out: MOLM-13 IC50
[2] = with gilteritinib 20 nM, read-out: MOLM-13 IC50 gilteritinib
[3] = compound alone (without gilteritinib), 11 IC50
[4] = with gilteritinib 10 nM, 11 IC50 gilteritinib

| IC50 (MOLM-13 cells; [1]) [nM] | IC50 (MOLM-13 cells; [2]) [nM] | IC50 (MV4;11 cells; [3]) [nM] | IC50 (MV4;11 cells; [4]) [nM] | Compound |
| --- | --- | --- | --- | --- |
| 10 to 100 | < 10 | 10 to 100 | < 10 | O=C1CCC(N2Cc3c(NC4CCC(Nc5cccc(N6CCC(n7cc(-c8cnc9ccccc9n8)cn7)CC6)c5)CC4)cccc3C2=O)C(=O)N1 (centres unmarked) [GS-378, 3-(1-Oxo-4-((4-((3-(4-(4-(quinoxalin-2-yl)-1H-pyrazol-1-yl)piperidin-1-yl)phenyl)amino)cyclohexyl)amino)isoindolin-2-yl)piperidine-2,6-dione] |
| > 1000 | 10 to 100 | 100 to 1000 | 10 to 100 | O=C1CCC(N2C(=O)c3ccc(NCCCCNC(=O)N4CCC(n5cc(-c6cnc7ccccc7n6)cn5)CC4)cc3C2=O)C(=O)N1 (centres unmarked) [GS-379, N-(4-((2-(2,6-Dioxopiperidin-3-yl)-1,3-dioxoisoindolin-5-yl)amino)butyl)-4-(4-(quinoxalin-2-yl)-1H-pyrazol-1-yl)piperidine-1-carboxamide] |
| 100 to 1000 | 100 to 1000 | > 1000 | > 1000 | Cc1nc(-c2cnc3ccccc3n2)cn1CCCCCCNc1ccc2c(c1)C(=O)N(C1CCC(=O)NC1=O)C2=O (centres unmarked) [GS-380, 2-(2,6-Dioxopiperidin-3-yl)-5-((6-(2-methyl-4-(quinoxalin-2-yl)-1H-imidazol-1-yl)hexyl)amino)isoindoline-1,3-dione] |
| > 1000 | 10 to 100 | > 1000 | 100 to 1000 | O=C1CCC(N2C(=O)c3ccc(NCCCCCCn4cc(-c5cnc6cccc(N7CCOCC7)c6n5)cn4)cc3C2=O)C(=O)N1 (centres unmarked) [GS-381, 2-(2,6-Dioxopiperidin-3-yl)-5-((6-(4-(8-morpholinoquinoxalin-2-yl)-1H-pyrazol-1-yl)hexyl)amino)isoindoline-1,3-dione] |
| > 1000 | 10 to 100 | > 1000 | > 1000 | O=C1CCC(N2C(=O)c3ccc(NCCCCCCn4cc(-c5cnc6cccc(C7CCOCC7)c6n5)cn4)cc3C2=O)C(=O)N1 (centres unmarked) [GS-382] |
| > 1000 | > 1000 | > 1000 | 100 to 1000 | CN1CCN(c2cccc3ncc(-c4cnn(CCCCCCNc5ccc6c(c5)C(=O)N(C5CCC(=O)NC5=O)C6=O)c4)nc23)CC1 (centres unmarked) [GS-383, 2-(2,6-Dioxopiperidin-3-yl)-5-((6-(4-(8-(4-methylpiperazin-1-yl)quinoxalin-2-yl)-1H-pyrazol-1-yl)hexyl)amino)isoindoline-1,3-dione] |
| > 1000 | > 1000 | > 1000 | > 1000 | O=C1CCC(N2C(=O)c3ccc(NCCCCCCn4cc(-c5cnc6cccc(N7CCNCC7)c6n5)cn4)cc3C2=O)C(=O)N1 (centres unmarked) [GS-384, 2-(2,6-Dioxopiperidin-3-yl)-5-((6-(4-(8-(piperazin-1-yl)quinoxalin-2-yl)-1H-pyrazol-1-yl)hexyl)amino)isoindoline-1,3-dione] |
| 100 to 1000 | 10 to 100 | 100 to 1000 | 10 to 100 | O=C1CCC(N2C(=O)c3ccc(NCCCCCCNc4ncc(-c5cnc6ccccc6n5)s4)cc3C2=O)C(=O)N1 (centres unmarked) [GS-385, 2-(2,6-Dioxopiperidin-3-yl)-5-((6-((5-(quinoxalin-2-yl)thiazol-2-yl)amino)hexyl)amino)isoindoline-1,3-dione] |
| 10 to 100 | < 10 | 100 to 1000 | 10 to 100 | O=C1CCC(N2C(=O)c3ccc(NCCCCCCc4ncc(-c5cnc6ccccc6n5)s4)cc3C2=O)C(=O)N1 (centres unmarked) [GS-386, 2-(2,6-Dioxopiperidin-3-yl)-5-((6-(5-(quinoxalin-2-yl)thiazol-2-yl)hexyl)amino)isoindoline-1,3-dione] |
| 100 to 1000 | < 10 | 100 to 1000 | 10 to 100 | COc1ccc2ncc(-c3cnn(CCCCCCNc4ccc5c(c4)C(=O)N(C4CCC(=O)NC4=O)C5=O)c3)nc2c1 (centres unmarked) [GS-387, 2-(2,6-Dioxopiperidin-3-yl)-5-((6-(4-(7-methoxyquinoxalin-2-yl)-1H-pyrazol-1-yl)hexyl)amino)isoindoline-1,3-dione] |
| > 1000 | > 1000 | > 1000 | > 1000 | CN1CCC(c2cccc3ncc(-c4cnn(CCCCCCNc5ccc6c(c5)C(=O)N(C5CCC(=O)NC5=O)C6=O)c4)nc23)CC1 (centres unmarked) [GS-388, 2-(2,6-Dioxopiperidin-3-yl)-5-((6-(4-(8-(1-methylpiperidin-4-yl)quinoxalin-2-yl)-1H-pyrazol-1-yl)hexyl)amino)isoindoline-1,3-dione] |
| 100 to 1000 | 10 to 100 | 100 to 1000 | 10 to 100 | O=C1CCC(N2C(=O)c3ccc(NCCCCCCn4cc(-c5cnc6cccc(C7CC7)c6n5)cn4)cc3C2=O)C(=O)N1 (centres unmarked) [GS-389, 5-((6-(4-(8-Cyclopropylquinoxalin-2-yl)-1H-pyrazol-1-yl)hexyl)amino)-2-(2,6-dioxopiperidin-3-yl)isoindoline-1,3-dione] |
| > 1000 | 100 to 1000 | > 1000 | 100 to 1000 | O=C1CCC(N2C(=O)c3ccc(NCCCCCNc4ncc(-c5cnc6ccccc6n5)s4)cc3C2=O)C(=O)N1 (centres unmarked) [GS-390, 2-(2,6-Dioxopiperidin-3-yl)-5-((5-((5-(quinoxalin-2-yl)thiazol-2-yl)amino)pentyl)amino)isoindoline-1,3-dione] |
| > 1000 | 100 to 1000 | > 1000 | > 1000 | COc1cccc2ncc(-c3cnn(CCCCCCNc4ccc5c(c4)C(=O)N(C4CCC(=O)NC4=O)C5=O)c3)nc12 (centres unmarked) [GS-391, 2-(2,6-Dioxopiperidin-3-yl)-5-((6-(4-(8-methoxyquinoxalin-2-yl)-1H-pyrazol-1-yl)hexyl)amino)isoindoline-1,3-dione] |
| > 1000 | > 1000 | > 1000 | 100 to 1000 | O=C1CCC(N2C(=O)c3ccc(NCC4CC(n5cc(-c6cnc7cccc(N8CCOCC8)c7n6)cn5)C4)cc3C2=O)C(=O)N1 (centres unmarked) [GS-392, 2-(2,6-Dioxopiperidin-3-yl)-5-(((3-(4-(8-morpholinoquinoxalin-2-yl)-1H-pyrazol-1-yl)cyclobutyl)methyl)amino)isoindoline-1,3-dione] |
| > 1000 | > 1000 | > 1000 | > 1000 | O=C1CCC(N2C(=O)c3ccc(NCCCCCCn4cc(-c5cnc6cccc(C7CCNCC7)c6n5)cn4)cc3C2=O)C(=O)N1 (centres unmarked) [GS-393, 2-(2,6-Dioxopiperidin-3-yl)-5-((6-(4-(8-(piperidin-4-yl)quinoxalin-2-yl)-1H-pyrazol-1-yl)hexyl)amino)isoindoline-1,3-dione] |
| > 1000 | 10 to 100 | 100 to 1000 | 10 to 100 | O=C1CCC(N2C(=O)c3ccc(NCC4CC(n5cc(-c6cnc7cccc(F)c7n6)cn5)C4)cc3C2=O)C(=O)N1 (centres unmarked) [GS-394, 2-(2,6-Dioxopiperidin-3-yl)-5-(((3-(4-(8-fluoroquinoxalin-2-yl)-1H-pyrazol-1-yl)cyclobutyl)methyl)amino)isoindoline-1,3-dione] |
| > 1000 | 10 to 100 | > 1000 | 10 to 100 | CN1C[C@H]2C[C@@H]1CN2c1ccc2ncc(-c3cnn(C4CC(CCCNc5ccc6c(c5)C(=O)N(C5CCC(=O)NC5=O)C6=O)C4)c3)nc2c1 (stereo partly drawn) [GS-395, 2-(2,6-Dioxopiperidin-3-yl)-5-((3-(3-(4-(7-((1R,4R)-5-methyl-2,5-diazabicyclo[2.2.1]heptan-2-yl)quinoxalin-2-yl)-1H-pyrazol-1-yl)cyclobutyl)propyl)amino)isoindoline-1,3-dione] |
| 10 to 100 | < 10 | 10 to 100 | < 10 | O=C1CCC(N2C(=O)c3ccc(NCCC[C@H]4C[C@H](n5cc(-c6cnc7cc(N8CCOCC8)ccc7n6)cn5)C4)cc3C2=O)C(=O)N1 (stereo partly drawn) [GS-396, 2-(2,6-Dioxopiperidin-3-yl)-5-((3-(trans-3-(4-(6-morpholinoquinoxalin-2-yl)-1H-pyrazol-1-yl)cyclobutyl)propyl)amino)isoindoline-1,3-dione] |
| 10 to 100 | < 10 | 10 to 100 | < 10 | CN1CCN(c2ccc3nc(-c4cnn([C@H]5C[C@H](CCCNc6ccc7c(c6)C(=O)N(C6CCC(=O)NC6=O)C7=O)C5)c4)cnc3c2)CC1 (stereo partly drawn) [GS-397, 2-(2,6-Dioxopiperidin-3-yl)-5-((3-(trans-3-(4-(6-(4-methylpiperazin-1-yl)quinoxalin-2-yl)-1H-pyrazol-1-yl)cyclobutyl)propyl)amino)isoindoline-1,3-dione] |
| > 1000 | > 1000 | > 1000 | > 1000 | CN1CCN(c2cccc3ncc(-c4cnn(C5CC(CNc6ccc7c(c6)C(=O)N(C6CCC(=O)NC6=O)C7=O)C5)c4)nc23)CC1 (centres unmarked) [GS-398, 2-(2,6-Dioxopiperidin-3-yl)-5-(((3-(4-(8-(4-methylpiperazin-1-yl)quinoxalin-2-yl)-1H-pyrazol-1-yl)cyclobutyl)methyl)amino)isoindoline-1,3-dione] |
| < 10 | < 10 | < 10 | < 10 | Cc1nn([C@H]2C[C@H](CCCNc3ccc4c(c3)C(=O)N(C3CCC(=O)NC3=O)C4=O)C2)cc1-c1cnc2ccc(N3CCOCC3)cc2n1 (some centres unmarked) [GS-399] |
| 100 to 1000 | 10 to 100 | 10 to 100 | 10 to 100 | O=C1CCC(N2C(=O)c3ccc(NCCC[C@H]4C[C@H](n5cc(-c6cnc7ccccc7n6)c(C(F)(F)F)n5)C4)cc3C2=O)C(=O)N1 (stereo partly drawn) [GS-400, 2-(2,6-Dioxopiperidin-3-yl)-5-((3-(trans-3-(4-(quinoxalin-2-yl)-3-(trifluoromethyl)-1H-pyrazol-1-yl)cyclobutyl)propyl)amino)isoindoline-1,3-dione] |
